Species on record: Rattus norvegicus
Test: DrugMatrix - Regimen: Daily Repeat
Assay type: toxicity, organism-based, Sprague-Dawley
Set-up: regimen Daily Repeat, gender Male, age 6-8 weeks
Conditions: in vivo, iv, vehicle 100 % SALINE; for ABSOLUTE BASOPHIL / ABSOLUTE EOSINOPHIL / ABSOLUTE LYMPHOCYTE / ABSOLUTE MONOCYTE / ABSOLUTE SEGMENTED NEUTROPHIL / BASOPHIL / EOSINOPHIL / ERYTHROCYTE COUNT / HEMATOCRIT / HEMOGLOBIN / LEUKOCYTE COUNT / LYMPHOCYTE / MEAN CORPUSCULAR HEMOGLOBIN / MEAN CORPUSCULAR HEMOGLOBIN CONCENTRATION / MEAN CORPUSCULAR VOLUME / MONOCYTE / NEUTROPHIL / NUCLEATED RED BLOOD CELLS / PLATELET COUNT: tissue Blood; for ALANINE AMINOTRANSFERASE / ALBUMIN / ALKALINE PHOSPHATASE / ASPARTATE AMINOTRANSFERASE / BLOOD UREA NITROGEN / CARBON DIOXIDE / CHLORIDE / CHOLESTEROL / CREATINE PHOSPHOKINASE / CREATININE / GLUCOSE / LACTATE DEHYDROGENASE / LIPASE / PHOSPHORUS / POTASSIUM / SODIUM / TOTAL BILIRUBIN / TOTAL PROTEIN / URIC ACID: tissue Plasma
[1] = 0 mg/kg, 72 h, dose level Control, time 3 day
[2] = 0 mg/kg, 120 h, dose level Control, time 5 day
[3] = 0.5 mg/kg, 72 h, dose level Low, time 3 day

CO[C@@]12[C@H](COC(N)=O)C3=C(C(=O)C(C)=C(N)C3=O)N1C[C@@H]1N[C@@H]12 [MITOMYCIN]
ABSOLUTE BASOPHIL [1]: 0 CELLS/uL
ABSOLUTE EOSINOPHIL [1]: 0 CELLS/uL
ABSOLUTE LYMPHOCYTE [1]: 7026.17 CELLS/uL
ABSOLUTE MONOCYTE [1]: 44.33 CELLS/uL
ABSOLUTE SEGMENTED NEUTROPHIL [1]: 379.5 CELLS/uL
BASOPHIL [1]: 0%
EOSINOPHIL [1]: 0%
ERYTHROCYTE COUNT [1]: 5.49 x10E6/uL
HEMATOCRIT [1]: 33.67%
HEMOGLOBIN [1]: 13.17 G/DL
LEUKOCYTE COUNT [1]: 7.45 x10E3/uL
LYMPHOCYTE [1]: 94%
MEAN CORPUSCULAR HEMOGLOBIN [1]: 24.03 pg
MEAN CORPUSCULAR HEMOGLOBIN CONCENTRATION [1]: 39.15 G/DL
MEAN CORPUSCULAR VOLUME [1]: 61.4 fL
MONOCYTE [1]: 0.67%
NEUTROPHIL [1]: 5.33%
NUCLEATED RED BLOOD CELLS [1]: 0.17 /100WBC
PLATELET COUNT [1]: 1062.5 x10E3/uL
ALANINE AMINOTRANSFERASE [1]: 53.17 u/L
ALBUMIN [1]: 4.33 G/DL
ALKALINE PHOSPHATASE [1]: 339.83 u/L
ASPARTATE AMINOTRANSFERASE [1]: 83.33 u/L
BLOOD UREA NITROGEN [1]: 16 mg/dL
CARBON DIOXIDE [1]: 32.5 mmol/L
CHLORIDE [1]: 98 MEQ/L
CHOLESTEROL [1]: 74.67 mg/dL
CREATINE PHOSPHOKINASE [1]: 284 u/L
CREATININE [1]: 0.2 mg/dL
GLUCOSE [1]: 128.67 mg/dL
LACTATE DEHYDROGENASE [1]: 110.33 u/L
LIPASE [1]: 9 u/L
PHOSPHORUS [1]: 11.73 mg/dL
POTASSIUM [1]: 6.34 MEQ/L
SODIUM [1]: 143.12 MEQ/L
TOTAL BILIRUBIN [1]: 0.18 mg/dL
TOTAL PROTEIN [1]: 6.2 G/DL
URIC ACID [1]: 1.28 mg/dL
ABSOLUTE BASOPHIL [2]: 0 CELLS/uL
ABSOLUTE EOSINOPHIL [2]: 26.67 CELLS/uL
ABSOLUTE LYMPHOCYTE [2]: 8334.17 CELLS/uL
ABSOLUTE MONOCYTE [2]: 29.5 CELLS/uL
BASOPHIL [2]: 0%
EOSINOPHIL [2]: 0.33%
ERYTHROCYTE COUNT [2]: 5.44 x10E6/uL
HEMATOCRIT [2]: 33.77%
HEMOGLOBIN [2]: 13.05 G/DL
LEUKOCYTE COUNT [2]: 8.98 x10E3/uL
LYMPHOCYTE [2]: 92.33%
MEAN CORPUSCULAR HEMOGLOBIN [2]: 24 pg
MEAN CORPUSCULAR HEMOGLOBIN CONCENTRATION [2]: 38.67 G/DL
MEAN CORPUSCULAR VOLUME [2]: 62.05 fL
MONOCYTE [2]: 0.33%
NEUTROPHIL [2]: 7%
NUCLEATED RED BLOOD CELLS [2]: 0 /100WBC
PLATELET COUNT [2]: 987 x10E3/uL
ALANINE AMINOTRANSFERASE [2]: 43.5 u/L
ALBUMIN [2]: 4.08 G/DL
ALKALINE PHOSPHATASE [2]: 310.17 u/L
ASPARTATE AMINOTRANSFERASE [2]: 76.67 u/L
BLOOD UREA NITROGEN [2]: 17 mg/dL
CARBON DIOXIDE [2]: 30.67 mmol/L
CHLORIDE [2]: 100.33 MEQ/L
CHOLESTEROL [2]: 69.33 mg/dL
CREATINE PHOSPHOKINASE [2]: 218.67 u/L
CREATININE [2]: 0.22 mg/dL
GLUCOSE [2]: 155.17 mg/dL
LACTATE DEHYDROGENASE [2]: 114.67 u/L
LIPASE [2]: 10.67 u/L
PHOSPHORUS [2]: 11.2 mg/dL
POTASSIUM [2]: 5.5 MEQ/L
SODIUM [2]: 144.12 MEQ/L
TOTAL BILIRUBIN [2]: 0.18 mg/dL
TOTAL PROTEIN [2]: 5.97 G/DL
URIC ACID [2]: 0.88 mg/dL
ABSOLUTE BASOPHIL [3]: 0 CELLS/uL
ABSOLUTE EOSINOPHIL [3]: 0 CELLS/uL
ABSOLUTE LYMPHOCYTE [3]: 8042 CELLS/uL
ABSOLUTE MONOCYTE [3]: 56.33 CELLS/uL
ABSOLUTE SEGMENTED NEUTROPHIL [3]: 601.67 CELLS/uL
BASOPHIL [3]: 0%
EOSINOPHIL [3]: 0%
ERYTHROCYTE COUNT [3]: 5.65 x10E6/uL
HEMATOCRIT [3]: 34.47%
HEMOGLOBIN [3]: 13.63 G/DL
LEUKOCYTE COUNT [3]: 8.7 x10E3/uL
LYMPHOCYTE [3]: 92.67%
MEAN CORPUSCULAR HEMOGLOBIN [3]: 24.13 pg
MEAN CORPUSCULAR HEMOGLOBIN CONCENTRATION [3]: 39.57 G/DL
MEAN CORPUSCULAR VOLUME [3]: 61.07 fL
MONOCYTE [3]: 0.67%
NEUTROPHIL [3]: 6.67%
NUCLEATED RED BLOOD CELLS [3]: 0 /100WBC
PLATELET COUNT [3]: 888.67 x10E3/uL
ALANINE AMINOTRANSFERASE [3]: 51.67 u/L
ALBUMIN [3]: 4.27 G/DL
ALKALINE PHOSPHATASE [3]: 324.67 u/L
ASPARTATE AMINOTRANSFERASE [3]: 87 u/L
BLOOD UREA NITROGEN [3]: 14.33 mg/dL
CARBON DIOXIDE [3]: 31 mmol/L
CHLORIDE [3]: 99 MEQ/L
CHOLESTEROL [3]: 72 mg/dL
CREATINE PHOSPHOKINASE [3]: 285 u/L
CREATININE [3]: 0.26 mg/dL
GLUCOSE [3]: 136.67 mg/dL
LACTATE DEHYDROGENASE [3]: 100.67 u/L
LIPASE [3]: 11.67 u/L
PHOSPHORUS [3]: 10.87 mg/dL
POTASSIUM [3]: 5.62 MEQ/L
SODIUM [3]: 144.1 MEQ/L
TOTAL BILIRUBIN [3]: 0.1 mg/dL
TOTAL PROTEIN [3]: 5.9 G/DL
URIC ACID [3]: 0.63 mg/dL

Source: ChEMBL document CHEMBL3885881, “DrugMatrix”
